Structures can show the parent of a compound that is named as a salt.

In the first test the test system is cholera toxin-induced intestinal fluid secretion. The experiment in a line: animal or person. Type of test: in vivo, rat (female Charles River). The conditions noted are these: Rattus norvegicus, sc, read-out: Inhibitory Doses (ID50's).
Regarding `COC(=O)c1ccc(NC2=NCCC2)c(C)c1` [reference compound], the ED50 stood at 74 mg/kg.

As for `Cc1c(NC2=NCCC2)cccc1OC(=O)C1CC1.Cl` [Example 22, 3-[(3,4-dihydro-2H-pyrrol-5-yl)amino]-2-methylphenyl cyclopropanecarboxylate hydrochloride], the ED50 was 6.8 mg/kg.

Turning to `COc1ccc(C(=O)Oc2cccc(NC3=NCCC3)c2C)cc1` [Example 17, 3-[(3,4-dihydro-2H-pyrrol-5-yl)amino]-2-methylphenyl 4-methoxybenzoate hydrochloride 5/8 hydrate], the ED50 was 9.5 mg/kg.

Regarding `Cc1c(NC2=NCCC2)cccc1OC(=O)C1CCCCC1.Cl` [Example 14, 3-[(3,4-dihydro-2H-pyrrol-5-yl)amino]-2-methylphenyl cyclohexanecarboxylate hydrochloride], the ED50 was determined as 8.1 mg/kg.

On to `Cc1cc(O)ccc1NC1=NCCC1` [Example 6, 4-[(3,4-dihydro-2H-pyrrol-5-yl)amino]-3-methylphenol 1/4 hydrate], for which the ED50 was 6.5 mg/kg.

Regarding `Cc1c(NC2=NCCC2)cccc1OC(=O)c1ccccc1` [Example 12, 3-[(3,4-dihydro-2H-pyrrol-5-yl)amino]-2-methylphenyl benzoate hydrobromide 1/4 hydrate], the ED50 is 5.7 mg/kg.

For `Cc1c(NC2=NCCC2)cccc1OC(=O)C12CC3CC(CC(C3)C1)C2` [Example 23, 3-[(3,4-dihydro-2H-pyrrol-5-yl)amino]-2-methylphenyl adamantane-1-carboxylate hydrochloride 1/4 hydrate], the ED50 was 9.1 mg/kg.

Regarding `Cc1c(O)cccc1NC1=NCCC1.Cl` [Example 3, 3-[(3,4-dihydro-2H-pyrrol-5-yl)amino]-2-methylphenol hydrochloride], the ED50 came to 8.3 mg/kg.

For the molecule `Cc1c(NC2=NCCC2)cccc1OC(=O)c1ccc(Cl)cc1` [Example 20, 3-[(3,4-dihydro-2H-pyrrol-5-yl)amino]-2-methylphenyl 4-chlorobenzoate hydrochloride 1/4 ethanol], the ED50 is 10.6 mg/kg.

`Cc1cc(OC(=O)C(C)(C)C)ccc1NC1=NCCC1` [Example 11, 4-[(3,4-dihydro-2H-pyrrol-5-yl)amino]-3-methylphenyl 2,2-dimethylpropanoatehydrochloride]: the ED50 is 9 mg/kg.

As to `Cc1c(NC2=NCCC2)cccc1OC(=O)c1ccc(Cl)c(Cl)c1.Cl` [Example 21, 3-[(3,4-dihydro-2H-pyrrol-5-yl)amino]-2-methylphenyl 3,4-dichlorobenzoate hydrochloride], the ED50 worked out at 5 mg/kg.

Turning to `Cc1c(NC2=NCCC2)cccc1OC(=O)C(C)(C)C` [Example 10, 3-[(3,4-dihydro-2H-pyrrol-5-yl)amino]-2-methylphenyl 2,2-dimethylpropanoatehydrochloride 1/4 hydrate], the ED50 was 6.4 mg/kg.

In the case of `Cc1ccccc1C(=O)Oc1cccc(NC2=NCCC2)c1C.Cl` [Example 18, 3-[(3,4-dihydro-2H-pyrrol-5-yl)amino]-2-methylphenyl 2-methylbenzoate hydrochloride], the ED50 is 40.5 mg/kg.

Regarding `Oc1cccc(NC2=NCCC2)c1` [Example 5, 3-[3,4-dihydro-2H-pyrrol-5-yl)amino]phenol hydrochloride], the ED50 was 21.3 mg/kg.

`Cc1ccc(C(=O)Oc2cccc(NC3=NCCC3)c2C)cc1.Cl` [Example 19, 3-[(3,4-dihydro-2H-pyrrol-5-yl)amino]-2-methylphenyl 4-methylbenzoate hydrochloride]: the ED50 is 5.9 mg/kg.

On to `Cc1c(NC2=NCCC2)cccc1OC(=O)c1ccco1` [Example 24, 3-[(3,4-dihydro-2H-pyrrol-5-yl)amino]-2-methylphenyl furan-2-carboxylate hydrochloride 1/8 methanol], for which the ED50 turned out to be 8.3 mg/kg.

On to `COc1ccccc1C(=O)Oc1cccc(NC2=NCCC2)c1C.Cl` [Example 15, 3-[(3,4-dihydro-2H-pyrrol-5-yl)amino]-2-methylphenyl 2-methoxybenzoate hydrochloride], for which the ED50 is 6.2 mg/kg.

`CC(=O)Oc1cccc(NC2=NCCC2)c1C.Cl` [Example 16, 3-[(3,4-dihydro-2H-pyrrol-5-yl)amino]-2-methylphenyl acetate hydrochloride]: the ED50 worked out at 10.1 mg/kg.

The same test, now with this note: antisecretory antidiarrheal activity, qualitative statement.
With `CN=C(N)NC(=O)Nc1c(C)cccc1C` [Lidamidine, reference compound], the “activity in the cholera-induced intestinal fluid secretion assay (in words)” value was “active”.

The test is the same for the next values; noted with them: subcutaneous route; class symbol; screening doses 10 and 20 mg/kg.
For the molecule `COc1ccc(NC2=NCCC2)c(C)c1` [reference compound], the “Inhibitory Doses (ID50's)” value is “I”.

Consider `COc1cccc(NC2=NCCC2)c1C` [reference compound], for which the “Inhibitory Doses (ID50's)” value is on record as “I”.
